Entries after “also recorded” stand apart in the source; their conditions may differ. Like-named read-outs stand apart in the source and are kept apart here.
How the values were obtained:
GLUTag cells = assay: GLP-1 secretion from cultured GLUTag cells treated with LPA and/or LPAR antagonist; format: cell-based, mouse; details: for rescue of LPA-inhibited GLP-1 secretion by LPAR antagonist: 10 μM antagonist plus 2.5 μM LPA
Method: We have grown GLUTag cells in culture to test effects of various LPA species and the LPAR 1/2/3 inhibitor Ki-16425. GLUTag cells are a well characterized L-cell line derived from a mouse intestinal tumour, which have been widely used to study the regulation of GLP-1. Briefly, GLUTag cells were grown until 80-90% confluent. Complete medium, containing fetal bovine serum, was replaced with medium containing charcoal[…] dextran treated serum, which removes lipids and hormones that could interfere with testing. […] This indicates a direct inhibitory effect of LPA at physiologically relevant levels on GLP-1 secretion by L-cells, and the ability of a commercially available LPAR antagonist to prevent this.
Experimental Protocol. Briefly, GLUTag cells were grown until 70-80% confluent. Complete medium (low glucose DMEM), containing fetal bovine serum, was replaced with medium containing charcoal-dextran treated serum, which removes lipids and hormones that could interfere with testing. Cells were then treated with medium containing either DMSO as vehicle control (0.1% v/v), 2.5 μM LPA, 10 μM LPAR antagonist, or a combination of the LPA species and inhibitors. For cells treated with both LPA plus LPAR inhibitor: cells were pre-treated with LPA for 30 minutes and then 10 uM LPAR inhibitor was added to the respective wells for a further 2 hours. For cells treated with LPA only, or vehicle only, the total treatment time was 2.5 hours. For cells treated with antagonist only, the treatment time was 2 hours.

Dpp4 gene expression = Dpp4 gene expression in LPA-treated GLUTag cells (real time PCR); format: cell-based, mouse; details: 2.5 uM 20:4-LPA, 2 hours and up to 2 days, normalised to Gapdh
GLP-1 [1] = assay: Circulating GLP-1 in mice injected with LPA, with or without LPAR antagonist pre-treatment; format: in vivo; details: for rescue of the fall in blood GLP-1 levels caused by LPA: serum at 30 min (Examples 6, 8); for blood GLP-1 with antagonist alone versus vehicles: no LPA; for prevention of LPA-induced decrease in plasma GLP-1: 5 mg/kg i.p. 10 min before 50 mg/kg 1-oleoyl-2-hydroxy-LPA, n=3 (Example 3, FIG. 4)
Method: We injected mice i.p. with vehicle (10% DMSO in isotonic saline) or 50 mg/kg of 1-oleoyl-2-hydroxy-LPA. Half of the mice injected with LPA were pre-injected with 5 mg/kg Ki-16425 10 minutes prior to receiving LPA. Thirty minutes later, samples of blood were taken by cardiac puncture, and circulating active GLP-1 levels in plasma were analysed by enzyme linked immunosorbent assay.
(§1) The experimental protocol was as follows: • 1. Mice were administered an LPAR antagonist drug, either by oral gavage (for BMS986020, SARI 00842, AM966, AM095, or H2L51863030), or by i.p. injection (for Ki-16425, and LPA2-antagonistl) at the doses indicated in the table below. • 2. Control mice were administered only the vehicle (a 10% DMSO solution) given via the same route as the comparison drug was administered. • 3. Ten minutes later, mice were injected i.p. either with isotonic saline, or with 50 mg/kg LPA. • 4. Thirty minutes later, mice were euthanized by cervical dyslocation, and blood was collected from the heart for preparation of serum that was stored at −80C until it was analyzed for total GLP-1 concentration by ELISA assay using a GLP-1 enzyme immunoassay kit.

DPP4 [2] = assay: DPP4 activity in GLUTag cells (fluorometric kit ab204722); format: cell-based, mouse; details: for effect of 18:1-LPA combined with LPAR antagonist on DPP4 activity in GLUTag cells: 2.5 uM 18:1-LPA 30 minutes, then 10 uM antagonist 2 hours; for effect of LPAR antagonist alone on DPP4 activity in GLUTag cells: 10 uM antagonist, 2 hours
Method: Briefly, GLUTag cells were grown to produce the recommended quantity needed for the assay according to the manufacturer's protocol (ab204722 Dipeptidyl peptidase IV Activity Assay Kit (Fluorometric)), and then the wells were treated in media containing charcoal-stripped FBS (10%), with either nothing (no treatment control), or vehicle control (0.05% DMSO), or 2.5 uM 18:1-LPA for 30 minutes, and then the inhibitors (as indicated in the graph of FIG. 17) were added to the vehicle wells and the 2.5 uM 18:1-LPA wells at 10 uM concentrations, as indicated on the graph (FIG. 17), for an additional 2 hours. Cells were then harvested according to the manufacturer's protocol, and lysed using reagents from the kit. Charcoal-stripped FBS was used to remove lipids, including LPA, from serum. Experiments were also carried out wherein the FBS was not stripped with charcoal, and the results were not different.
According to the manufacturer, dipeptidyl peptidase IV (DPP4) Activity Assay Kit (Fluorometric) (ab204722) is an assay where DPP4 cleaves a substrate to release a quenched fluorescent group, AMC (7-Amino-4-Methyl Coumarin), which can be easily detected at Ex/Em=360/460 nm. This assay is rapid, simple, sensitive, and reliable, as well as, suitable for high throughput activity screening of DPP4. This kit detects DPP4 activity as low as 3 ρU per well.

LPAR1 [3] = target: T1, LPAR1 (Homo sapiens, UniProt Q92633); details: cited from earlier work
Target sequence in this assay (Q92633 whole entry, species assumed): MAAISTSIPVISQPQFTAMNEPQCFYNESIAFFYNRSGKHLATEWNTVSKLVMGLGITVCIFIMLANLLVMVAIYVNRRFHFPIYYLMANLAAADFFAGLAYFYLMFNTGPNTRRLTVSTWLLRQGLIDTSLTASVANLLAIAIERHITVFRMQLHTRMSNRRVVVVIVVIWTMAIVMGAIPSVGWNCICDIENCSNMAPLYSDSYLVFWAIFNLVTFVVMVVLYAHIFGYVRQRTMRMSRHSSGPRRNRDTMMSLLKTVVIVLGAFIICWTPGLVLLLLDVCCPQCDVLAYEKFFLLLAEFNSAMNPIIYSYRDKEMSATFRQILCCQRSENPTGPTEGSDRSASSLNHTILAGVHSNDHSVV

LPAR2 = LPAR2 (Homo sapiens, UniProt Q9HBW0); details: cited from earlier work
Chain of LPAR2 (Q9HBW0 whole entry, species assumed): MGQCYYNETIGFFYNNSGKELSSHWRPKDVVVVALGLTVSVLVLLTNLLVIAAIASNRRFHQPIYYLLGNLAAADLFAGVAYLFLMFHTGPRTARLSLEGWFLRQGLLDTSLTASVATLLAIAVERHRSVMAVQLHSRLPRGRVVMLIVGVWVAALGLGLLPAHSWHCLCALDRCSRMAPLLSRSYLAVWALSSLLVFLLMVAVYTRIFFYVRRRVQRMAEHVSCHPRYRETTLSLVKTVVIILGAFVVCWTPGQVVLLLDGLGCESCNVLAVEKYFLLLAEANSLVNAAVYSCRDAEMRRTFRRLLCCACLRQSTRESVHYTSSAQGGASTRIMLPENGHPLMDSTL

LPAR3 = target: T2, LPAR3 (Homo sapiens, UniProt Q9UBY5); details: cited from earlier work
T2 sequence (Q9UBY5 1-353): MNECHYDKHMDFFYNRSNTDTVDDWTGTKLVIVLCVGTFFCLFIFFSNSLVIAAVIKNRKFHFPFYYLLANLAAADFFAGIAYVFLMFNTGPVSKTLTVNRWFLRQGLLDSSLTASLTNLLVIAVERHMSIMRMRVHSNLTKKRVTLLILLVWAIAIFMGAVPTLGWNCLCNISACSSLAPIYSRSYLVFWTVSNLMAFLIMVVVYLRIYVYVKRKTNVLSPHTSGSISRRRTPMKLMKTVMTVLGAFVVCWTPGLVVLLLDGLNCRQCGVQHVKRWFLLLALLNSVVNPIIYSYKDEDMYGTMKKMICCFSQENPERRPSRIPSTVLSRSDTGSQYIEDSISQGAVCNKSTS

LPAR4 = target: T3, LPAR4 (Homo sapiens, UniProt Q99677); details: cited from earlier work
T3 construct: host or cells: CHO cells
T3 sequence (Q99677 whole entry, species assumed): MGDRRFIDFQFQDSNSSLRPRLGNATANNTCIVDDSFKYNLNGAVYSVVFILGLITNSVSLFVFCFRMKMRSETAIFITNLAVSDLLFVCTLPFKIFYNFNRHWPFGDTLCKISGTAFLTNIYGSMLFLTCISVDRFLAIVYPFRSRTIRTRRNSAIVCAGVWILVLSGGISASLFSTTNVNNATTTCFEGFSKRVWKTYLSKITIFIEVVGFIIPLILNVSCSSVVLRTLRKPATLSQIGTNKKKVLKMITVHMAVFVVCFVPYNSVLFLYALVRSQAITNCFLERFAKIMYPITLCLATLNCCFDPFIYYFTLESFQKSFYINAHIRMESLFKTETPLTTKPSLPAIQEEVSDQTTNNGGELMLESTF

LPAR5 = target: T4, LPAR5 (Homo sapiens, UniProt Q9H1C0); details: cited from earlier work
T4 construct: host or cells: CHO cells
T4 sequence (Q9H1C0 whole entry, species assumed): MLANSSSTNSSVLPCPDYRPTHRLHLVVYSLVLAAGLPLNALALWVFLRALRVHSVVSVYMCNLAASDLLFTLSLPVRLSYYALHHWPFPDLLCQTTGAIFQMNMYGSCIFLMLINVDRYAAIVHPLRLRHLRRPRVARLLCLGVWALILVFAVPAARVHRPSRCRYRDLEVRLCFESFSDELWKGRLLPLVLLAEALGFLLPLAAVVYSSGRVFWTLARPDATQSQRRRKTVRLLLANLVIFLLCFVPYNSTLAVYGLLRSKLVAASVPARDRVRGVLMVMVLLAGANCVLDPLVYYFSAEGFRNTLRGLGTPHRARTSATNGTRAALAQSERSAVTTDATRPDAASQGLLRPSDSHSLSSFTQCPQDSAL

recombinant mouse LPAR1 = target: T5, recombinant mouse LPAR1 (Mus musculus, UniProt P61793); details: CHO cell membranes; read-out: IC50, inhibition of GTP-gamma-s binding, mouse LPAR1; cited from earlier work
T5 construct: expressed in transfected cells; host or cells: CHO cell membranes
T5 sequence (P61793 whole entry): as the sequence (Q92633 whole entry, species assumed) above, with I4A, I8S, P22Q, H40Y, I61V, E193D, N194H, I269V, S331N, T335N counted along it

LPAR1 [4] = target: T1, LPAR1; set-up: expressed in transfected cells; host or cells: CHO cell membranes; details: CHO cell membranes; read-out: IC50, inhibition of GTP-gamma-s binding, human LPAR1; cited from earlier work
Target sequence in this assay (Q92633 whole entry): as the sequence (Q92633 whole entry, species assumed) above

GLP-1 [5] = assay: Blood GLP-1 in RT-SAKO mice (elevated endogenous LPA) treated with Ki-16425; format: in vivo; details: 30 minutes after injection
Description: Our laboratory has created a new genetic mouse model to study the isolated effects of obesity on kidney health. This model was not created to test LPA metabolism or to study GLP-1 regulation, but we have made important discoveries on these topics. We have made mice that lack the enzyme adipose triglyceride lipase (ATGL) in renal tubule cells, and have named these mice renal tubule-specific adipose triglyceride lipase knockout (or RT-SAKO) mice. These mice develop fatty kidneys, and as a side effect of changes in kidney cell metabolism, their kidneys make more LPA. As a result, RT-SAKO mice develop elevations in blood lysophosphatidic acid levels by 16-18 weeks of age (FIG. 5, left panel). They also have low circulating levels of GLP-1 (FIG. 5, right panel).

[6] = Glucose intolerance and insulin secretion in fatty-kidney (RT-SAKO) mice; format: in vivo
DPP4 [7] = assay: DPP4 activity in serum of C57BI/6J mice; format: in vivo
Method: Mice were injected with 5 mg/kg Ki16425 or control (10% DMSO in isotonic saline), then injected 10 mins later with 50 mg/kg 1-18:1-LPA or saline (vehicle control), then euthanized 30 minutes later for serum collection and analysis.
as §1, with “(for” for “(for BMS986020,”, “00842” for “00842, AM966, AM095,”, “AM966),” for “H2L51863030),”, “Ki-16425)” for “Ki-16425, and LPA2-antagonistl)”, “18:1-LPA.” for “LPA.”

insulin secretion = details: prior study, Rancoule et al. 2013, cited from earlier work

## CCCCC/C=C\C/C=C\C/C=C\C/C=C\CCCC(=O)OCC(O)COP(=O)(O)O (stereo not drawn) [20:4-LPA, 1-arachidonoyl-2-hydroxy-LPA]
GLUTag cells; 2.5 μM LPA species
  fold decrease in GLP-1 secretion / GLP-1 levels in media caused by LPA: ~5 fold
GLUTag cells; 2.5 μM LPA, 2-2.5 h
  decrease in GLP-1 secretion / level caused by LPA (fraction): over 2/3
Dpp4 gene expression
  change in Dpp4 gene expression: did not significantly change

## Cc1noc(-c2ccc(-c3ccc(CC(=O)O)cc3)cc2)c1NC(=O)O[C@H](C)c1ccccc1 [AM095]
GLUTag cells; 10 μM antagonist alone, 2 h
  effect of LPAR antagonist alone on GLP-1 levels: no significant effect
GLUTag cells
  rescue of LPA-inhibited GLP-1 secretion by LPAR antagonist: complete rescue
GLP-1 [1]; antagonist 30 mg/kg by gavage 10 min before 50 mg/kg 18:1-LPA i.p.
  rescue of the fall in blood GLP-1 levels caused by LPA: completely abrogated; also recorded: Complete rescues
GLP-1 [1]; antagonist 30 mg/kg by gavage
  blood GLP-1 with antagonist alone versus vehicles: not significantly different from mice treated only with the vehicles
DPP4 [2]
  effect of 18:1-LPA combined with LPAR antagonist on DPP4 activity in GLUTag cells: did not significantly affect
  effect of LPAR antagonist alone on DPP4 activity in GLUTag cells: did not significantly affect
LPAR1 [3]; read-out: IC50 for LPAR1
  IC50: ~25 nM
LPAR1 [3]; selectivity
  fold greater affinity for LPAR1 than LPAR2-5: > 400 fold
LPAR2
  IC50: ≥ 10000 nM
LPAR3
  level at which LPAR3 is antagonized: low micromolar levels
LPAR3; read-out: IC50 for LPAR3
  IC50: ≥ 10000 nM
LPAR4
  IC50: ≥ 10000 nM
LPAR5
  IC50: ≥ 10000 nM
Recombinant mouse LPAR1
  IC50: 730 nM
LPAR1 [4]
  IC50: 980 nM

## Cc1noc(-c2ccc(CSCCC(=O)O)cc2)c1NC(=O)OC(C)c1ccccc1Cl (stereo not drawn) [Ki16425]
GLUTag cells
  rescue of LPA-inhibited GLP-1 secretion by LPAR antagonist: larger effect than the others; also recorded: prevented that decrease
GLUTag cells; listed as Ki-16425
  rescue of LPA-inhibited GLP-1 secretion by LPAR antagonist: completely prevents this decrease; also recorded: restored
GLP-1 [1]
  prevention of LPA-induced decrease in plasma GLP-1: significantly abrogates
GLP-1 [1]; listed as Ki-16425
  prevention of LPA-induced decrease in plasma GLP-1: partially restored; also recorded: partially prevented; also recorded: significantly prevented
GLP-1 [1]; antagonist 5 mg/kg i.p. 10 min before 50 mg/kg 18:1-LPA i.p.
  rescue of the fall in blood GLP-1 levels caused by LPA: completely abrogated; also recorded: Complete rescues; also recorded: restored to normal levels
GLP-1 [1]; antagonist 5 mg/kg i.p.
  blood GLP-1 with antagonist alone versus vehicles: indistinguishable from mice treated only with the vehicles
GLP-1 [5]
  restoration of blood GLP-1 levels in RT-SAKO mice: restores GLP-1 levels; also recorded: come back up to close to normal
[6]
  glucose intolerance and impaired insulin secretion: rescues
DPP4 [2]
  effect of 18:1-LPA combined with LPAR antagonist on DPP4 activity in GLUTag cells: did not significantly affect
  effect of LPAR antagonist alone on DPP4 activity in GLUTag cells: did not significantly affect
DPP4 [7]; 5 mg/kg i.p.
  effect of antagonist on DPP4 activity in mouse serum: did not significantly affect; also recorded: lack of effect; also recorded: not significantly affected
DPP4 [7]; antagonist 5 mg/kg i.p. then 50 mg/kg 18:1-LPA
  effect of 18:1-LPA combined with antagonist on DPP4 activity in mouse serum: did not affect
Insulin secretion; mice on a high-fat diet
  beta-islet cell number: increased
Insulin secretion
  prevention of LPA-impaired insulin secretion: prevented
LPAR1 [3]
  Ki: 340 nM
LPAR2
  Ki: 6500 nM
LPAR3
  Ki: 930 nM
  level at which LPAR3 is antagonized: low micromolar levels
